Molecules are shown by their SMILES. pIC50: −log10 of the molar value.

The target in this assay is Recombinant human KIF18A (1-467His-tagged) protein (Homo sapiens (Human), UniProt Q8NI77). Description: KIF18A enzyme assay (microtubule-stimulated ATPase activity, ADP-Glo). The note with it: 30 nM KIF18A, ATP 75 μM, read-out: inhibitory activity against KIF18A IC50. The assay is classed as biochemical. The essentials: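 Baculovirus-expressed human KIF18A (1-467, His-tagged; 30 nM) preincubated 15 min at room temperature with compound (22-point 2-fold series) in pH 7.5 Tris buffer containing 30 μg/mL pig microtubules and 1 μM paclitaxel.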
Chain of Recombinant human KIF18A (1-467His-tagged) protein (Q8NI77 1-467): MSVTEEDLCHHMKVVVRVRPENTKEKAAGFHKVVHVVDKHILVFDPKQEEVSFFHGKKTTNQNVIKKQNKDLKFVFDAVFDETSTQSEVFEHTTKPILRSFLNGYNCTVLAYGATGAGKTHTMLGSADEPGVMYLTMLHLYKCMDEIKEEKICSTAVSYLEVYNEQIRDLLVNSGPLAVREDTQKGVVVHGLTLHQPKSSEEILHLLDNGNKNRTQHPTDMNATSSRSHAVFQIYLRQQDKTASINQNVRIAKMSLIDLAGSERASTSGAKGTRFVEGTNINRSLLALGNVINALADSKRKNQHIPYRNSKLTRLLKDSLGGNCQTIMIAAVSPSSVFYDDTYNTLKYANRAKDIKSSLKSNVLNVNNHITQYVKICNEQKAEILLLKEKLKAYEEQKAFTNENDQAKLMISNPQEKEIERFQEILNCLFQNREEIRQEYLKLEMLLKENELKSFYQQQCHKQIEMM
Chain of Recombinant human KIF18A (1-467His-tagged) protein (P02550 whole entry partner): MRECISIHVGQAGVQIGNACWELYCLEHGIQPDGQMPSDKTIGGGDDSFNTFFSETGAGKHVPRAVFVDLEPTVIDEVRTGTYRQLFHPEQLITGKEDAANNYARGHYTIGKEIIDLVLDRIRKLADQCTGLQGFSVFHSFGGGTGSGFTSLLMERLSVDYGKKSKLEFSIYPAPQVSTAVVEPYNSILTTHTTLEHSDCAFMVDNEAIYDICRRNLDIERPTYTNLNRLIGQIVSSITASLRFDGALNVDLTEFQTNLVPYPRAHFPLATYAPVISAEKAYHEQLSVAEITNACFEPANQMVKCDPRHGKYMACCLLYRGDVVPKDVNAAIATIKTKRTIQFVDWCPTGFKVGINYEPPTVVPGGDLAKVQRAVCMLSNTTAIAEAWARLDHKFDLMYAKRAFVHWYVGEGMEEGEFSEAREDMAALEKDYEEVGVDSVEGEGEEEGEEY
Chain of Recombinant human KIF18A (1-467His-tagged) protein (P02554 whole entry partner): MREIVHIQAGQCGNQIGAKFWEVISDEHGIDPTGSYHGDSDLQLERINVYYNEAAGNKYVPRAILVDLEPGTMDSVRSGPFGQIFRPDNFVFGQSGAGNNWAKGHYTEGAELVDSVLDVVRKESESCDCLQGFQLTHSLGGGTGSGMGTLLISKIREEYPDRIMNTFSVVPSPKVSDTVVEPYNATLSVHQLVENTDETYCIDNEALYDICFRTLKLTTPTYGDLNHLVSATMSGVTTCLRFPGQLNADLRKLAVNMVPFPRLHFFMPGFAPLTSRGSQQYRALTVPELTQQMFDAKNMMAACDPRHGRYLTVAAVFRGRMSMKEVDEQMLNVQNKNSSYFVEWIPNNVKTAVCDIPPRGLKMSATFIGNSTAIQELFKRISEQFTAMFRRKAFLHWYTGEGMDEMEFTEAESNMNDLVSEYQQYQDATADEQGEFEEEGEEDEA
(In general: In ADP-Glo the light output rises with the ADP produced.)
A word on the pIC50: it is the negative decadic logarithm of the IC50, by convention in mol/L. `O=C(Nc1ccc(NS(=O)(=O)CCO)cc1N1CCC2(CC1)CC2)c1cc2c(c(N3CCC(F)(F)CC3)n1)OCCC2` [Compound 548]: the pIC50 was not below 7.00.

As to `C[C@@H]1CN(c2cc(C(=O)Nc3ccc(S(=O)(=O)NCCO)cc3N3CCC4(CC3)CC4)cc3c2OCC3)CCO1` [Compound 50], the pIC50 was not below 7.00.

Take `Cn1ccc2cc(C(=O)Nc3ccc(NS(=O)(=O)CCO)cc3N3CCC4(CC3)CC4)nc(N3CC4CC4C3)c21` (stereo not shown) [Compound 490]: the negative-log IC50 (pIC50) was not below 7.00.

As for `CC1(F)CCN(c2nc(NC(=O)c3ccc(S(=O)(=O)NCCO)cc3N3CCC4(CC3)CC4)cc3c2OCC3)C1` (stereo not shown) [Compound 88], the pIC50 is not below 7.00.

Take `CN1CCc2cc(C(=O)Nc3ccc(NS(=O)(=O)CCO)cc3N3CCC4(CC3)CC4)cc(NC(C)(C)CO)c21` [Compound 299]: the pIC50 is not below 7.00.

For the compound `CN1CCc2cc(C(=O)Nc3ccc(S(=O)(=O)NCCO)cc3N3CCC4(CC3)CC4)cc(N3CCC(F)CC3)c21` [Compound 313], the pIC50 was not below 7.00.

Consider `O=C(Nc1cc(N2CCC(F)(F)CC2)c2ncsc2c1)c1ccc(NS(=O)(=O)CCO)cc1N1CCC2(CC1)CC2` [Compound 519], for which the negative-log IC50 (pIC50) is not below 7.00.

Regarding `Cn1ccc2cc(NC(=O)c3ccc(NS(=O)(=O)CCO)cc3N3CCC4(CC3)CC4)cc(N3CCC(F)CC3)c21` [Compound 393], the negative-log IC50 (pIC50) was not below 7.00.

For the compound `C[C@H](CO)NS(=O)(=O)c1ccc(C(=O)Nc2cc3c(c(N4CCC(F)(F)CC4)n2)OCC3)c(N2CCC3(CC2)CC3)c1` [Compound 94], the pIC50 is not below 7.00.

For `C[C@H]1CN(c2cc(C(=O)Nc3ccc(NS(=O)(=O)CCO)cc3N3CCC4(CC3)CC4)cc3ccn(C)c23)CCO1` [Compound 419], the pIC50 was not below 7.00.

For `O=C(Nc1cc2c(c(N3CC4CC4C3)n1)OCC2)c1ccc(S(=O)(=O)NCCO)cc1N1CCC2(CC1)CC2` (stereo not shown) [Compound 90], the negative logarithm of the IC50 (pIC50) was not below 7.00.

Take `Cn1ccc2cc(C(=O)Nc3ccc(NS(=O)(=O)CCO)cc3N3CCC4(CC3)CC4)cc(OCCC(F)(F)F)c21` [Compound 421]: the pIC50 was not below 7.00.

As for `C[C@H]1CN(c2cc(C(=O)Nc3ccc(S(=O)(=O)NCCO)cc3N3CCC4(CC3)CC4)cc3ccoc23)CCO1` [Compound 179], the negative-log IC50 (pIC50) was not below 7.00.

Take `C[C@@H]1CN(c2cc(NC(=O)c3ccc(NS(=O)(=O)CCO)cc3N3CCC4(CC3)CC4)cc3c2N(C)CC3)CCO1` [Compound 258]: the negative logarithm of the IC50 (pIC50) is not below 7.00.

Consider `CN1CCc2cc(C(=O)Nc3ccc(S(=O)(=O)NCCO)cc3N3CCC4(CC3)CC4)cc(NC(C)(C)CO)c21` [Compound 315], for which the pIC50 was not below 7.00.

Turning to `O=C(Nc1ccc(NS(=O)(=O)CCO)cc1N1CCC2(CC1)CC2)c1cc2c(c(N3CC(F)(F)C3)c1)OCC2` [Compound 36], the pIC50 was not below 7.00.

Turning to `C[C@@H]1CN(c2cc(NC(=O)c3ccc(NS(=O)(=O)[C@H](C)CO)cc3N3CCC4(CC3)CC4)cc3c2OCC3)CCO1` [Compound 16], the pIC50 is not below 7.00.

Regarding `C[C@H]1CN(c2nc(C(=O)Nc3ccc(S(=O)(=O)NCCO)cc3N3CCC4(CC3)CC4)cc3ccoc23)CCO1` [Compound 243], the pIC50 is not below 7.00.

Consider `C[C@@H]1CN(c2cc(C(=O)Nc3ccc(S(=O)(=O)NCCO)cc3N3CCC4(CC3)CC4)cc3ccn(C)c23)CCO1` [Compound 434], for which the pIC50 was not below 7.00.

On to `O=C(Nc1cc2ccoc2c(N2CCC(F)CC2)n1)c1ccc(NS(=O)(=O)CCO)cc1N1CCC2(CC1)CC2` [Compound 201], for which the pIC50 is not below 7.00.

Consider `C[C@@H]1CN(c2cc(NC(=O)c3ccc(NS(=O)(=O)[C@H](C)CO)cc3N3CCC4(CC3)CC4)cc3ccoc23)CCO1` [Compound 144], for which the pIC50 is not below 7.00.

Regarding `C[C@@H](CO)S(=O)(=O)Nc1ccc(NC(=O)c2cc3ccoc3c(N3CCC(F)(F)CC3)n2)c(N2CCC3(CC2)CC3)c1` [Compound 237], the pIC50 was not below 7.00.

For the compound `Cn1ccc2cc(C(=O)Nc3ccc(NS(=O)(=O)CCO)cc3N3CCC4(CC3)CC4)cc(N3CC4CC4C3)c21` (stereo not shown) [Compound 426], the pIC50 was not below 7.00.

On to `O=C(Nc1cc2c(c(N3CCC(F)(F)CC3)n1)NCC2)c1ccc(NS(=O)(=O)CCO)cc1N1CCC2(CC1)CC2` [Compound 524], for which the pIC50 is not below 7.00.

As to `C[C@@H]1CN(c2nc(C(=O)Nc3ccc(NS(=O)(=O)[C@H](C)CO)cc3N3CCC4(CC3)CC4)cc3c2N(C)CC3)CCO1` [Compound 368], the pIC50 was not below 7.00.

As for `CC1(F)CCN(c2nc(C(=O)Nc3ccc(S(=O)(=O)NCCO)cc3N3CCC4(CC3)CC4)cc3ccoc23)C1` (stereo not shown) [Compound 248], the pIC50 is not below 7.00.

Consider `C[C@@H]1CN(c2cc(NC(=O)c3ccc(NS(=O)(=O)[C@@H](C)CO)cc3N3CCC4(CC3)CC4)cc3c2OCC3)CCO1` [Compound 15], for which the pIC50 is not below 7.00.

For the compound `O=C(Nc1cc2ccoc2c(N2CCC3(CC3)C2)n1)c1ccc(S(=O)(=O)NCCO)cc1N1CCC2(CC1)CC2` [Compound 214], the pIC50 is not below 7.00.

`Cn1ccc2cc(C(=O)Nc3ccc(S(=O)(=O)NCCO)cc3N3CCC4(CC3)CC4)nc(N3CC(F)(F)C3)c21` [Compound 500]: the pIC50 was not below 7.00.

Regarding `O=C(Nc1cc2c(c(N3CCC(F)(F)CC3)n1)OCCO2)c1ccc(NS(=O)(=O)CCO)cc1N1CCC2(CC1)CC2` [Compound 544], the pIC50 was not below 7.00.

Regarding `C[C@H]1CN(c2cc(C(=O)Nc3ccc(NS(=O)(=O)CCO)cc3N3CCC4(CC3)CC4)cc3c2OCC3)CCO1` [Compound 35], the pIC50 is not below 7.00.

With `Cn1ccc2cc(C(=O)Nc3ccc(NS(=O)(=O)CCO)cc3N3CCC4(CC3)CC4)nc(N3CCC(F)CC3)c21` [Compound 489], the pIC50 is not below 7.00.

For `C[C@@H]1CN(c2cc(NC(=O)c3ccc(S(=O)(=O)N[C@@H](C)CO)cc3N3CCC4(CC3)CC4)cc3c2OCC3)CCO1` [Compound 31], the negative-log IC50 (pIC50) was not below 7.00.

In the case of `O=C(Nc1cc2c(c(N3CCC(F)CC3)n1)OCC2)c1ccc(NS(=O)(=O)CCO)cc1N1CCC2(CC1)CC2` [Compound 73], the pIC50 was not below 7.00.

As for `C[C@H]1CN(c2cc(NC(=O)c3ccc(S(=O)(=O)NCCO)cc3N3CCC4(CC3)CC4)cc3c2N(C)CC3)CCO1` [Compound 275], the pIC50 was not below 7.00.

For `CC(C)(CO)Nc1cc(NC(=O)c2ccc(NS(=O)(=O)CCO)cc2N2CCC3(CC2)CC3)cc2ccoc12` [Compound 139], the negative logarithm of the IC50 (pIC50) was not below 7.00.

`CC1(F)CCN(c2cc(C(=O)Nc3ccc(NS(=O)(=O)CCO)cc3N3CCC4(CC3)CC4)cc3c2OCC3)C1` (stereo not shown) [Compound 40]: the negative logarithm of the IC50 (pIC50) is not below 7.00.

On to `O=C(Nc1ccc(NS(=O)(=O)CCO)cc1N1CCC2(CC1)CC2)c1cc2c(c(N3CCC(F)CC3)c1)OCC2` [Compound 41], for which the negative logarithm of the IC50 (pIC50) is not below 7.00.

`O=C(Nc1cc2ccoc2c(OC2CCC2)n1)c1ccc(NS(=O)(=O)CCO)cc1N1CCC2(CC1)CC2` [Compound 199]: the pIC50 is not below 7.00.

Take `CN1CCc2cc(C(=O)Nc3ccc(S(=O)(=O)NCCO)cc3N3CCC4(CC3)CC4)nc(OC3CCC3)c21` [Compound 375]: the negative logarithm of the IC50 (pIC50) was not below 7.00.

On to `C[C@@H](CO)S(=O)(=O)Nc1ccc(C(=O)Nc2cc3ccoc3c(N3CCC(F)(F)CC3)n2)c(N2CCC3(CC2)CC3)c1` [Compound 205], for which the negative-log IC50 (pIC50) is not below 7.00.

Turning to `C[C@@H](CO)NS(=O)(=O)c1ccc(C(=O)Nc2cc3c(c(N4CCC(F)(F)CC4)c2)N(C)CC3)c(N2CCC3(CC2)CC3)c1` [Compound 285], the pIC50 was not below 7.00.

For the compound `Cn1ccc2cc(NC(=O)c3ccc(NS(=O)(=O)CCO)cc3N3CCC4(CC3)CC4)nc(OCCC(F)(F)F)c21` [Compound 453], the pIC50 is not below 7.00.

As to `C[C@H]1CN(c2cc(NC(=O)c3ccc(NS(=O)(=O)CCO)cc3N3CCC4(CC3)CC4)cc3ccn(C)c23)CCO1` [Compound 387], the pIC50 was not below 7.00.

For `C[C@H](CO)NS(=O)(=O)c1ccc(NC(=O)c2cc3ccoc3c(N3CCC(F)(F)CC3)n2)c(N2CCC3(CC2)CC3)c1` [Compound 254], the negative-log IC50 (pIC50) was not below 7.00.

Regarding `O=C(Nc1cc2c(c(N3CCOCC3)n1)OCC2)c1ccc(NS(=O)(=O)CCO)cc1N1CCC2(CC1)CC2` [Compound 76], the pIC50 is not below 7.00.

`CN1CCc2cc(C(=O)Nc3ccc(NS(=O)(=O)CCO)cc3N3CCC4(CC3)CC4)nc(N3CCOCC3)c21` [Compound 364]: the pIC50 was not below 7.00.

Take `C[C@@H]1CN(c2cc(NC(=O)c3ccc(S(=O)(=O)N[C@@H](C)CO)cc3N3CCC4(CC3)CC4)cc3ccoc23)CCO1` [Compound 159]: the negative-log IC50 (pIC50) was not below 7.00.

Turning to `CC1(F)CCN(c2cc(C(=O)Nc3ccc(S(=O)(=O)NCCO)cc3N3CCC4(CC3)CC4)cc3c2OCC3)C1` (stereo not shown) [Compound 56], the negative logarithm of the IC50 (pIC50) was not below 7.00.

For `Cn1ccc2cc(C(=O)Nc3ccc(S(=O)(=O)NCCO)cc3N3CCC4(CC3)CC4)cc(NC(C)(C)CO)c21` [Compound 443], the pIC50 is not below 7.00.

Regarding `CN1CCc2cc(C(=O)Nc3ccc(NS(=O)(=O)CCO)cc3N3CCC4(CC3)CC4)nc(N3CC4CC4C3)c21` (stereo not shown) [Compound 362], the negative-log IC50 (pIC50) is not below 7.00.

As to `O=C(Nc1cc(OC2CCC2)c2occc2c1)c1ccc(NS(=O)(=O)CCO)cc1N1CCC2(CC1)CC2` [Compound 135], the negative-log IC50 (pIC50) is not below 7.00.

`O=C(Nc1cc2c(c(N3CC(F)(F)C3)n1)OCC2)c1ccc(S(=O)(=O)NCCO)cc1N1CCC2(CC1)CC2` [Compound 84]: the pIC50 was not below 7.00.

For the compound `O=C(Nc1cc2scnc2c(N2CCC(F)(F)CC2)n1)c1ccc(NS(=O)(=O)CCO)cc1N1CCC2(CC1)CC2` [Compound 520], the pIC50 is not below 7.00.

As for `C[C@@H]1CN(c2cc(C(=O)Nc3ccc(NS(=O)(=O)[C@@H](C)CO)cc3N3CCC4(CC3)CC4)cc3ccoc23)CCO1` [Compound 175], the negative logarithm of the IC50 (pIC50) was not below 7.00.

In the case of `Cn1ccc2cc(NC(=O)c3ccc(S(=O)(=O)NCCO)cc3N3CCC4(CC3)CC4)nc(OC3CCC3)c21` [Compound 471], the pIC50 was not below 7.00.

Take `Cn1ccc2cc(C(=O)Nc3ccc(NS(=O)(=O)CCO)cc3N3CCC4(CC3)CC4)nc(N3CCOCC3)c21` [Compound 492]: the pIC50 is not below 7.00.

For `C[C@@H](CO)S(=O)(=O)Nc1ccc(C(=O)Nc2cc3c(c(N4CCC(F)(F)CC4)c2)OCC3)c(N2CCC3(CC2)CC3)c1` [Compound 13], the negative-log IC50 (pIC50) is not below 7.00.

These data come from US20250197382A1, “KIF18A INHIBITOR” (WIGEN BIOMEDICINE TECHNOLOGY (SHANGHAI) CO., LTD., priority 2022, published 2025).
